Laboratory results reported in patent US20240182482A1, “FUSED CYCLIC COMPOUND AS WEE-1 INHIBITOR, PREPARATION METHOD THEREFOR AND USE THEREOF” (WIGEN BIOMEDICINE TECHNOLOGY (SHANGHAI) CO., LTD., priority 2021, published 2024).

Tests used:
MIA PaCa-2 cells [1] = test: In-vitro anti-proliferative activity in combination with gemcitabine (GMC) on MIA PaCa-2 cells; assay type: cell-based
Protocol: Example 73. In-Vitro Anti-Proliferative Activity of the Compounds of the Present Invention in Combination with Gemcitabine (GMC) on MIA PaCa-2 Cells
(§1) MIA PaCa-2 cells were seeded on a 384-well plate at 3000 cells/well, and 20 nM gemcitabine was added. After overnight adherence culture, DMSO or the compounds serially diluted 1:5 from 100 nM were added. The viability was assessed 72 h after dosing by measuring the intracellular ATP content. The inhibition percentage of viable cells by the compounds was calculated by comparing with the DMSO group, and the IC50 value was calculated.

MIA PaCa-2 cells [2] = test: In-vitro anti-proliferative activity on MIA PaCa-2 cells (intracellular ATP content); assay type: cell-based; details: compound alone, 72 h after dosing, read-out: IC50 Without GMC, anti-proliferative activity on MIA PaCa-2 cells
Protocol: Example 72. In-Vitro Anti-Proliferative Activity of the Compounds of the Present Invention on MIA PaCa-2 Cells
as §1, with “cells/well.” for “cells/well, and 20 nM gemcitabine was added.”, “5 μM” for “100 nM”

Wee-1 kinase = Wee-1 kinase (Homo sapiens (Human), UniProt P30291); test: Inhibitory activity against Wee-1 kinase (ADP-GLO chemiluminescence); assay type: biochemical; details: 60 min reaction at room temperature
Protocol: Example 71. Assay of Inhibitory Activity of Compounds of the Present Invention Against Wee-1 Kinase
After the serially diluted compound and an enzyme were mixed, the mixture was incubated at room temperature (25° C.) for 15 min, and then centrifuged at 1000 rpm for 1 min for mixing. 5 μL of substrate was added to start the reaction. After the mixture was reacted at room temperature for 60 min, 5 μL of ADP-GLO reagent was added and the mixture was centrifuged at 1000 rpm for 1 min for mixing. The mixture was subsequently incubated at room temperature for 60 min, and then 10 μL of kinase detection reagent was added. The mixture was incubated for 60 min, and the chemiluminescence was determined. The inhibition percentage of the enzyme activity by the compounds was calculated compared with the DMSO group, and the IC50 values were also calculated.

[3] = Homo sapiens, MIA PaCa-2, 72 h, read-out: IC50 GMC (20 nM), anti-proliferative activity on MIA PaCa-2 cells, in combination with 20 nM gemcitabine, 72 h after dosing, ATP content
[4] = read-out: IC50 GMC (20 nM), anti-proliferative activity on MIA PaCa-2 cells, in combination with 20 nM gemcitabine, 72 h after dosing, ATP content

Wee-1 kinase, sequence (P30291 whole entry): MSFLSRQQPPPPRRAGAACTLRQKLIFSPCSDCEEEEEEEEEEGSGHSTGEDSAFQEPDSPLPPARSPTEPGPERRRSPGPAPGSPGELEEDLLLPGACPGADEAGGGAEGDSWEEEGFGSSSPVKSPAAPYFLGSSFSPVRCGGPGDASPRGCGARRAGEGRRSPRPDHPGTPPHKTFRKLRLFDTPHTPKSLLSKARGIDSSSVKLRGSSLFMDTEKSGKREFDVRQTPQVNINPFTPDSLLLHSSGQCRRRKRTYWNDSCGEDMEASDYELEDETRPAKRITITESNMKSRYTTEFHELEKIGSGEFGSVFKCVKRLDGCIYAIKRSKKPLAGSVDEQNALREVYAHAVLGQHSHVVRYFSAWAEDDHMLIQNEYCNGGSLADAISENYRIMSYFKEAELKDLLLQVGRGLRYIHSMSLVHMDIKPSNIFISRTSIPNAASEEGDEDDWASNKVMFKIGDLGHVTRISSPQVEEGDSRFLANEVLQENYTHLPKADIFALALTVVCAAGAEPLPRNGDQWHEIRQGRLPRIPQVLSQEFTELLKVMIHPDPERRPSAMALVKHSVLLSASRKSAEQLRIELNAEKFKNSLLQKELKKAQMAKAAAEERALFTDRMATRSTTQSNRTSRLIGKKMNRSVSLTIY

| SMILES | IC50 (MIA PaCa-2 cells [1]; [3]) [nM] | IC50 (MIA PaCa-2 cells [2]; Homo sapiens, MIA PaCa-2, 72 h) [nM] | IC50 (Wee-1 kinase) [nM] | IC50 (MIA PaCa-2 cells [1]; [4]) [nM] | IC50 (MIA PaCa-2 cells [2]) [nM] |
| --- | --- | --- | --- | --- | --- |
| CN1Cc2cc(Nc3ncc4c(F)cn(-c5ccc(F)c(N=S(C)(C)=O)n5)c4n3)cc3c2[C@H](CCC3)C1 [Compound 65] | 1.4 | 78 | 1.56 | – | – |
| [2H]C([2H])([2H])S(=O)(=Nc1cccc(-n2cc(F)c3cnc(Nc4cc5c6c(c4)CN(C)CC6CCC5)nc32)n1)C([2H])([2H])[2H] (stereo not drawn) [Compound 21] | 1.7 | 85 | 1.67 | – | – |
| CN1Cc2cc(Nc3ncc4c(F)cn(-c5ccc(Cl)c(N=S(C)(C)=O)n5)c4n3)cc3c2C(CCC3)C1 (stereo not drawn) [Compound 24] | 1.6 | 184 | 2.49 | – | – |
| CN1Cc2cc(Nc3ncc4c(F)cn(-c5ccc(F)c(N=S(C)(C)=O)n5)c4n3)cc3c2C(CCC3)C1 (stereo not drawn) [Compound 23] | – | 155 | 2.05 | 1.2 | – |
| CCS(=O)(CC)=Nc1cccc(-n2cc(F)c3cnc(Nc4cc5c6c(c4)CN(C)CC6CCC5)nc32)n1 (stereo not drawn) [Compound 2] | 2.4 | 106 | 1.96 | – | – |
| CN1Cc2cc(Nc3ncc4c(F)cn(-c5ccc(F)c(N=S(C)(C)=O)n5)c4n3)cc3c2C(CCC3)C1 (stereo not drawn) [Compound 64] | – | – | 3.36 | 2.5 | 179 |
| CN1Cc2cc(Nc3ncc4c(F)cn(-c5cccc(N=S(C)(C)=O)n5)c4n3)cc3c2[C@H](CCC3)C1 [Compound 66] | < 1 | 28 | 1.19 | 0.9 | – |
| CN1Cc2cc(Nc3ncc4c(F)cn(-c5cccc(N=S6(=O)CCC6)n5)c4n3)cc3c2C(CCC3)C1 (stereo not drawn) [Compound 3] | 2.3 | 128 | 2.48 | – | – |
| [2H]C([2H])([2H])S(=O)(=Nc1cccc(-n2cc(F)c3cnc(Nc4cc5c6c(c4)CN(C)C[C@H]6CCC5)nc32)n1)C([2H])([2H])[2H] [Compound 69] | – | – | 1.54 | – | – |
| [2H]C([2H])([2H])S(=O)(=Nc1nc(-n2cc(F)c3cnc(Nc4cc5c6c(c4)CN(C)C[C@H]6CCC5)nc32)ccc1F)C([2H])([2H])[2H] [Compound 70] | 1.1 | 89 | 1.84 | – | – |
| CN1Cc2cc(Nc3ncc4c(F)cn(-c5cccc(N=S(C)(C)=O)n5)c4n3)cc3c2C(CCC3)C1 (stereo not drawn) [Compound 1] | – | – | < 2 | 1.7 | 37 |
| CCN1Cc2cc(Nc3ncc4c(C)cn(-c5cccc(N=S(C)(C)=O)n5)c4n3)cc3c2C(CCC3)C1 (stereo not drawn) [Compound 28] | 1.3 | 172 | 2.33 | – | – |
| [2H]C([2H])([2H])N1Cc2cc(Nc3ncc4c(F)cn(-c5ccc(F)c(N=S(C)(C)=O)n5)c4n3)cc3c2[C@H](CCC3)C1 [Compound 68] | < 1 | 76 | 1.97 | 0.9 | – |
| C=CCn1c(=O)c2cnc(Nc3ccc(N4CCN(C)CC4)cc3)nc2n1-c1cccc(C(C)(C)O)n1 [MK-1775, reference compound] | 24.2 | 904 | – | – | – |
| CN1Cc2cc(Nc3ncc4c(F)cn(-c5cccc(P(C)(C)=O)n5)c4n3)cc3c2C(CCC3)C1 (stereo not drawn) [Compound 14] | 1.3 | 331 | 2.71 | – | – |
| [2H]C([2H])([2H])N1Cc2cc(Nc3ncc4c(F)cn(-c5cccc(N=S(C)(C)=O)n5)c4n3)cc3c2[C@H](CCC3)C1 [Compound 67] | < 1 | 49 | 1.86 | 0.8 | – |
| CN1Cc2cc(Nc3ncc4c(F)cn(-c5cccc(N=S(C)(C)=O)n5)c4n3)cc3c2C(CCC3)C1 (stereo not drawn) [Compound 63] | 2.3 | – | 3.47 | – | 173 |
| CN1Cc2cc(Nc3ncc4c(F)cn(-c5cccc(N=S6(=O)CCCC6)n5)c4n3)cc3c2C(CCC3)C1 (stereo not drawn) [Compound 4] | 2.1 | 115 | 2.47 | – | – |
| CN1Cc2cc(Nc3ncc4c(F)cn(-c5cccc(N=S6(=O)CCOCC6)n5)c4n3)cc3c2C(CCC3)C1 (stereo not drawn) [Compound 5] | – | – | 2.79 | 2.4 | 139 |
